The results in this text go back to US4971982A, “Benzopyran derivatives” (Hoffmann-La Roche Inc., priority 1987, dated 1990).

SMILES strings stand for the structures.

The experiment has as its system potassium channel. Nature of the experiment: potassium channel activating activity: reduction of potassium chloride-induced contractions of rat hepatic portal veins. The following applies: isolated hepatic portal veins, male Sprague-Dawley rats; Krebs solution, 37° C.; further 20 mmol of potassium chloride; isometric tension; read-out: IC50 (concentration of test substance producing a half-maximal reduction of the contractions caused by the potassium chloride). As to the method: Hepatic portal veins are removed from male Sprague-Dawley rats and suspended in organ baths under an initial tension of 0.5 g for the isometric recording of tension. The veins are incubated in Krebs solution (consisting of 118 mM of sodium chloride, 25 mM of sodium hydrogen carbonate, 10.5 mM of D-glucose, 4.7 mM of potassium chloride, 0.4 mM of magnesium sulphate, 1.2 mM of potassium dihydrogen phosphate and 2.5 mM of calcium chloride) which is gassed with 95% oxygen and 5% carbon dioxide and maintained at 37° C. After incubation for 0.5 hour to 1 hour a further 20 mmol of potassium chloride is added followed after 0.25 hour to 0.5 hour by increasing concentrations of the test substance. The activity of the test substance is expressed as the IC50 value, which is the concentration of test substance producing a half-maximal reduction of the contractions caused by the potassium chloride.
Turning to `CC1(C)C=C(c2cccc[n+]2[O-])c2cc(C#N)ccc2O1` [Compound B, 2-(6-cyano-2,2-dimethyl-2H-1-benzopyran-4-yl)pyridine N-oxide], the IC50 was determined as 0.038 ± 0.002 µM.
The value for `CC1(C)C=C(c2cc(C#N)ccc2O)c2cc(C#N)ccc2O1` [Compound H, 4-(5-cyano-2-hydroxyphenyl)-2,2-dimethyl-2H-1-benzopyran-6-carbonitrile] was 3.1 ± 0.8 µM.
On to `CC(=O)c1ccc2c(c1)C(c1cccc[n+]1[O-])CC(C)(C)O2` (centres unmarked) [Compound D, 2-(6-acetyl-3,4-dihydro-2,2-dimethyl-2H-1-benzopyran-4-yl)pyridine N-oxide], for which the IC50 was 0.56 ± 0.07 µM.
The value for `CCC1(C)C=C(c2cccc[n+]2[O-])c2cc(C#N)ccc2O1` (centres unmarked) [Compound G, 2-(6-cyano-2-ethyl-2-methyl-2H-1-benzopyran-4-yl)pyridine N-oxide] was 0.019 ± 0.0012 µM; that for `CC1(C)C=C(c2ccc(-c3ccccc3)c[n+]2[O-])c2cc(C#N)ccc2O1` [Compound E, 2-(6-cyano-2,2-dimethyl-2H-1-benzopyran-4-yl)-5-phenylpyridine N-oxide] was 0.015 ± 0.0005 µM.
As for `CC1(C)CC(c2cccc[n+]2[O-])c2cc([N+](=O)[O-])ccc2O1` (centres unmarked) [Compound C, 2-(3,4-dihydro-2,2-dimethyl-6-nitro-2H-1-benzopyran-4-yl)pyridine N-oxide], the IC50 stood at 0.014 ± 0.001 µM.
As for `CC1(C)CC(c2cccc[n+]2[O-])c2cc(C#N)ccc2O1` (centres unmarked) [Compound A, 2-(6-cyano-3,4-dihydro-2,2-dimethyl-2H-1-benzopyran-4-yl)pyridine N-oxide], the IC50 came to 0.16 ± 0.02 µM.
On to `CC1(C)Oc2ccc(C#N)cc2[C@@H](c2cccc[n+]2[O-])[C@@H]1O` (racemic) [Compound F, rac-trans-2-(6-cyano-3,4-dihydro-3-hydroxy-2,2-dimethyl-2H-1-benzopyran-4-yl)pyridine N-oxide], for which the IC50 stood at 0.28 ± 0.03 µM.
